US20040082773A1, “Modified PAR receptors, their preparation and their uses for selecting compounds which modulate PAR activity” (Pfizer Inc., priority 2002, published 2004)
Numbering of substitutions follows the chain as printed. One block for each molecule: values may come before it. Where no end group is shown, it is not given here.

How the values were obtained:
PAR-2Mut2 receptor [1] = biological target: T1, PAR-2Mut2 receptor (Homo sapiens, UniProt P55085); assay: Calcium release direct measurement (FLIPR), CHO-NFAT-PAR-2Mut2 cells; assay type: cell-based
T1 construct: indeed comprising amino acids 43 to 397 of the precursor of human PAR-2; expressed in transfected cells
T1 sequence (P55085 43-397): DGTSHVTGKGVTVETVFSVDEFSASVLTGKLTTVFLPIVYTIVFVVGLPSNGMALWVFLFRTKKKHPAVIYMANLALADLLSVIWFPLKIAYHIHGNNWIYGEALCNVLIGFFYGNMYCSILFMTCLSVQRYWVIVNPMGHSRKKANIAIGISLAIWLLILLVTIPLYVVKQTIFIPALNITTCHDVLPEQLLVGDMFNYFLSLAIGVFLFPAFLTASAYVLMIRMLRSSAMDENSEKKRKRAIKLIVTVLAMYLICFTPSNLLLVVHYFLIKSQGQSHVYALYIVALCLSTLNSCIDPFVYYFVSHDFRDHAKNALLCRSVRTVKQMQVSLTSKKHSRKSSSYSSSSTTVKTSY
Procedure: (§1) The cells used for these tests were: CHO-NFAT-PAR-2-MUT2, CHO-NFAT-PAR-2-MUT3, CHO-NFAT-PAR2-WT and CHO-NFAT-WT.
(§2) The day before the experiment, the cells, were seeded into 384 well-plate in a medium DMEM glutamax (ref: 61965-026 Invitrogen, fetal calf serum 10% (ref: 10270106 Invitrogen), gentamycin 50 mg/ml 0.25% (ref: 15750-037 Invitrogen) at 25000 cells/well/50 μL.
(§3) The day of the experiment, the medium was discarded (by turning the plate). 50 μl of HBSS (Invitrogen réf: 14025.050), hepes (Invitrogen ref: 15630-05620 mM) were added to each well, HBSS was then discarded by turning the plate. 10 ml of Calcium kit loading solution and 10 ml HBSS, hepes 20 mM and 200 μl probenecid 250 μM were mixed and then 30 μl of this solution was added per well; plates were then incubated during 2 hours at 37° C. 4% CO2. 1.2 μl of a 250 μM compound in 25% DMSO to be tested and 3.8 μl HBSS, hepes 20 mM were added (on the Minitrak Va., Packard), the plates are transferred to the FLIPR and 25 μl 7.2 μM SLIGRL were added.
(§4) The dye is excited with the 488 nm excitation line of the argon laser and emits at 550 nm. The FLIPR quantifies the release of intracellular calcium in real time, the fluorescence is measured during 90 seconds.

CHO-NFAT cells [2] = assay: Calcium release direct measurement (FLIPR), CHO-NFAT control cells; assay type: cell-based
Procedure: as §1
The day before the experiment, cells were seeded into 384 well-plate in a complete medium at 25000 cells/well/50 μL.
The day after, the medium was discarded (by turning the plate). 50 μl of HBSS, hepes 20 mM were added to each well, HBSS was then discarded by turning the plate. This was done twice.
10 ml of Calcium kit loading solution (solution prepared as described above) and 10 ml HBSS, hepes 20 mM and 200 μl probenecid 250 μM were mixed, and 30 μl of this solution per well were added, plates were incubated during 2 hours at 37° C. 5% CO2.
1.2 μl of compound to be tested (250 μM, 25% DMSO) and 3.8 μl HBSS, hepes 20 mM were added (on the Minitrak Va.). 25 μl 72 nM Trypsin was then added using the FLIPR.
The fluorescence was measured on the FLIPR as specified above.

CHO-NFAT cells [3] = assay: Beta-lactamase reporter assay, CHO-NFAT control cells; assay type: cell-based
PAR-2Mut2 receptor [4] = biological target: T1, PAR-2Mut2 receptor; assay: Beta-lactamase reporter assay, CHO-NFAT-PAR-2Mut2 cells; assay type: cell-based; details: FIG. 6
Procedure: In a 96-well or 384-well microplate, […] the wild-type PAR-2 receptor (CHO-NFAT-PAR-2WT) or the CHO-NFAT cells expressing the PAR-2Mut2 receptor (CHO-NFAT-PAR-2mut2), in a proportion of 4×10^4 for a 96-well plate or 1×10^4 for a 384-well plate, for 4 hours, at 37° C., in an atmosphere containing 5% CO2 and in a modified Dulbecco medium (Lifetech, Gaithersburg, Md.) containing 100 μg/ml of gentamycin. The cells were placed in the dark for 1 hour at ambient temperature with 12 μM of CCF4-AM (Aurora Biosciences, San Diego, Calif.). The fluorescence was measured with a Fluostar fluorimeter (BMG, Germany). The excitation occurs at 405 nm and the emission is recorded at both 460 and 535 nm. The fluorescence ratio (460 nm/535 nm) is estimated after elimination of the background noise (medium without cells). The ED50 is considered to be the concentration of SLIGRL-NH2 necessary to achieve 50% of the maximum fluorescence ratio.
The CHO-NFAT-beta-lactamase cells stimulated with SLIGRL-NH2 in the medium mentioned above (4×10^4 cells/well) were used as control. All the reagents were added with the activating agent (chemical or referenced compounds), unless otherwise indicated.

PAR-2Mut3 receptor = biological target: T2, PAR-2Mut3 receptor (Homo sapiens, UniProt P55085); assay: Calcium release direct measurement (FLIPR), CHO-NFAT-PAR2-Mut3 cells; assay type: cell-based
T2 construct: indeed comprising amino acids 57 to 397 of the precursor of human PAR-2; expressed in transfected cells
T2 sequence (P55085 57-397): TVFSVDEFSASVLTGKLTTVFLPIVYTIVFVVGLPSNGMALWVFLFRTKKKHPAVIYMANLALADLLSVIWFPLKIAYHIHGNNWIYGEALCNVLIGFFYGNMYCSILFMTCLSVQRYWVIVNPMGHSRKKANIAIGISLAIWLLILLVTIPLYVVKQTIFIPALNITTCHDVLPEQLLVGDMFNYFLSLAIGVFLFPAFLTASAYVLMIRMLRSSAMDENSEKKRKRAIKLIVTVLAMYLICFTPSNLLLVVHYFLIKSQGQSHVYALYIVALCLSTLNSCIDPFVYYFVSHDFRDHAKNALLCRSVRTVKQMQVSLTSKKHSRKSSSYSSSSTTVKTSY
Procedure: as §1, §2, §3, §4

[5] = biological target: T3, wild-type PAR-2 receptor expressed on CHO-NFAT cells (CHO-NFAT-PAR-2WT) (human, UniProt P55085 37-397); assay: cell-based or functional assay
T3 sequence (looked up): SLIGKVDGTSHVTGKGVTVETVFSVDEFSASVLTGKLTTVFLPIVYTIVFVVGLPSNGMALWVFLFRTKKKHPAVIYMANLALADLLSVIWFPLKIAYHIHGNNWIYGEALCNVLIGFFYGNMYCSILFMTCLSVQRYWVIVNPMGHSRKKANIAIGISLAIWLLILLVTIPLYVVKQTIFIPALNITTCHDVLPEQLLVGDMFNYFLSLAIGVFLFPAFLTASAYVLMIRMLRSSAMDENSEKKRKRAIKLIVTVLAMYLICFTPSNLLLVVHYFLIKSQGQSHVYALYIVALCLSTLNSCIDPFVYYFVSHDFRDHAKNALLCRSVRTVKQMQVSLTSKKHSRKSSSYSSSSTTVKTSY

[6] = biological target: T4, truncated PAR-2 receptor PAR-2Mut2 expressed on CHO-NFAT cells (CHO-NFAT-PAR-2Mut2) (human, UniProt P55085 43-397); assay: cell-based or functional assay
T4 sequence: T1 sequence (P55085 43-397) with G96A

Fluorescence after stimulation, compared with CHO-PAR2-WT cells (PAR-2Mut2 receptor [1]; CHO-NFAT-PAR-2Mut2 cells, SLIGRL-NH2 0.1 μM to 100 μM): higher
Molecule: SLIGRL [SLIGRL-NH2, synthetic ligand (Neosystème)]

Activation of cells by trypsin (beta-lactamase fluorescence) (PAR-2Mut2 receptor [4]): not activated | Activation of cells by trypsin (FLIPR calcium release) (PAR-2Mut2 receptor [1]; CHO-NFAT-PAR2-MUT2 cells): not activated | Activation of cells by trypsin (FLIPR calcium release) (PAR-2Mut3 receptor): not activated
Molecule: trypsin
Activation of cells by trypsin (FLIPR calcium release) (CHO-NFAT cells [2]): not activated | Activation of cells by trypsin (beta-lactamase fluorescence) (CHO-NFAT cells [3]): not activated

ED50 (beta-lactamase reporter, fluorescence ratio 460 nm/535 nM) [5]: 10 µM | ED50 (beta-lactamase reporter, fluorescence ratio 460 nm/535 nM) [6]: 0.2 µM
B1: SLIGRL-NH2 synthetic ligand (peptide)
peptide: SLIGRL-NH2
